From patent publication US5182289A, “Heterobicyclic compounds having antiinflammatory activity” (Schering Corporation, priority 1990, dated 1993) come the findings set out here.

In one test the target is T1, cyclooxygenase (Homo sapiens, UniProt P23219).
T1 construct: Cyclooxygenase Assay with Human Platelets; endogenous in cells; host or cells: human blood platelets from healthy volunteers
Description: Cyclooxygenase Assay with Human Platelets, HHT production. It is filed as cell-based. The note with it: for % inhibition of HHT production in human platelets at 15 µM / % inhibition of HHT production in human platelets at 50 µM: read-out: PMN Assay % Inhibition HHT. On the procedure: Cyclooxygenase Assay with Human Platelets
Blood is collected in acid-citrate-dextrose anticoagulant by venipuncture from normal healthy volunteers who said that they were not on any medication for the previous two weeks. Platelets are isolated by the procedure of Okuma and Uchino (Blood 54:1258-1271 (1979)). In brief, blood is centrifuged at 4° C. at 200×g for 10 minutes to sediment red and white cells. The platelet rich plasma (PRP) supernatant is removed and mixed with one-tenth volume of 77 mM EDTA, pH 7.2 and prostacyclin sodium salt is added to the PRP at a final concentration of 1 nanogram per milliliter(ng/mL). The PRP is centrifuged at 1700×g, 4° C. for 15 minutes. The platelet pellet is resuspended in the HEPES buffer described in the 5-lipoxygenase section above which additionally contained 1 ng/mL prostacyclin and 0.5 mM ethylene glycolbis(B-aminoethyl ether) N,N,N',N'-tetraacetic acid (EGTA) and the suspension is recentrifuged at 1,700×g, 4° C. for 15 minutes. The pellet is resuspended in HEPES buffer containing 0.5 mM EGTA and 1.5 mM CaCl2 at a cell count of 200,000 cells/ul. Platelets (0.2 ml of suspension) are preincubated with test compounds and the ^14 C-arachidonic acid plus the calcium ionophore A23187 stimulant exactly as described for the 5-lipoxygenase assay. The cyclooxygenase product 12-hydroxyheptadecatrienoic acid (HHT) is isolated and quantitated by the HPLC system used for the 5-lipoxygenaseassay. HHT elutes from this system at about eleven minutes. Results are expressed as percent inhibition of HHT production by the test compounds versus the test vehicle alone.

Another test addresses T2, 5-lipoxygenase (Homo sapiens, UniProt P09917).
T2 construct: Human polymorphonuclear (PMN) leukocytes (neutrophils) are obtained from normal healthy volunteers; endogenous in cells; host or cells: human polymorphonuclear leukocytes (neutrophils) from blood of healthy volunteers
T2 sequence (P09917 1-674): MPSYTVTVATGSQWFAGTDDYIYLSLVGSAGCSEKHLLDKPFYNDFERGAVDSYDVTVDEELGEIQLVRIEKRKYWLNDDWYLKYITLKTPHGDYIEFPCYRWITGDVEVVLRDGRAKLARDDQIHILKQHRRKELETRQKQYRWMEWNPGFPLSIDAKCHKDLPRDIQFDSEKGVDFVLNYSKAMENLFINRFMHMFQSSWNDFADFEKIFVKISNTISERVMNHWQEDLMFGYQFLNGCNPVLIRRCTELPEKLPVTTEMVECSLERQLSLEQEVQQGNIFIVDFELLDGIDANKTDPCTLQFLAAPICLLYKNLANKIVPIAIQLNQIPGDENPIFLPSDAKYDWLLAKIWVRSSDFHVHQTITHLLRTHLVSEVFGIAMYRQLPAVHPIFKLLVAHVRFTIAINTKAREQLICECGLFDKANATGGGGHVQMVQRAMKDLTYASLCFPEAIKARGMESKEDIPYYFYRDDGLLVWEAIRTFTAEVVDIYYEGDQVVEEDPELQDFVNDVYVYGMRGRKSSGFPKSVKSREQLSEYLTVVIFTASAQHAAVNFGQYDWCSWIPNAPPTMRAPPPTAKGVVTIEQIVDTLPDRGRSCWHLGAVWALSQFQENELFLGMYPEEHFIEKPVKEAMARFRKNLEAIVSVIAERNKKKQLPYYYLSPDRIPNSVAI
Description: 5-Lipoxygenase Assay in human polymorphonuclear (PMN) leukocytes, 5-HETE production. It is filed as cell-based. On the procedure: Human polymorphonuclear (PMN) leukocytes (neutrophils) are obtained from normal healthy volunteers by venipuncture and collected with heparin anticoagulant. Neutrophils are isolated by Dextran/Ficol sedimentation as described (Billah et al, J. Biol. Chem. 260, 6899-6906 (1985)). In brief, 30 ml of blood is mixed with 5 ml of dextran (Sigma) solution and kept at 37° C. for 30 min. The upper white cellrich layer is removed and 10 ml is layered on 9 ml of Ficol-Paque solution (Pharmacia) and centrifuged at 280×g for 10 min. at 5° C. The supernatant is removed and the neutrophil pellet is resuspended in HEPES buffer containing 25 mM N-2-hydroxyethylpiperazine-N^1 -2 ethanesulfonic acid(HEPES), 125 mM NaCl, 2.5 mM KCL, 0.7 mM MgCl2, 0.5 mM and 10 mM glucose at pH 7.4. The red cells in the suspension are lysed by hypotonic shock. The neutrophils are washed by centrifugation in HEPES buffer two times and finally resuspended at a concentration of 20×10^6 cells/ml in the presence of 1 mM CaCl2.
Neutrophils (0.2 ml of suspension) are preincubated with dimethylsulfoxide (DMSO) vehicle with or without test compound (1 ul) for 4 minutes then incubated for 5 minutes with ^14 C-arachidonic acid (Amersham, 59 Ci/mole) at a 9 uM final concentration, and the calcium ionophore A23187 (Calbiochem) at a 1 uM final concentration. These stimulants are added in 10 ul of water:ethanol (9:1). The reaction is stopped by addition of methanol (0.4 ml), and cellular debris is removed by centrifugation. Aliquots (100 ul) of the incubations are run on a Waters two pump high performance liquid chromatography (HPLC) system fitted with a DuPont Zorbax ODS, 5 u, 4×80 […] Reliance Cartridge column and C18 "Guard Pak". The column is initially eluted at 2 ml/min with 80 percent of the mixture water:methanol:acetic acid (46:54:0.08) containing 1 mM EDTA adjusted to pH 6.0 with ammonium hydroxide (Pump A) and 20% methanol (Pump B). At 10 minutes, a linear gradient is established. to reach 100 percent methanol (Pump B) at 27 minutes. Between 27 and 28 minutes, methanol is exchanged for the initial eluting solvent and by 35 minutes the column is reequilibrated for the next sample. The effluent is analyzed by a continuous flow radioactivity monitor (model ROMONA-D) interfaced with a Hewlett Packard Lab Automation System for quantitation of radioactive products. This includes the major 5-lipoxygenase product, 5-hydroxyeicosatetraenoic acid (5-HETE) which elutes at 20 minutes. The results with and without test compound are used to calculate percent inhibition of 5-HETE production.

By inhibition is commonly meant the change of the read-out against control, counted positive when it falls.

T1 sequence (P23219 24-599): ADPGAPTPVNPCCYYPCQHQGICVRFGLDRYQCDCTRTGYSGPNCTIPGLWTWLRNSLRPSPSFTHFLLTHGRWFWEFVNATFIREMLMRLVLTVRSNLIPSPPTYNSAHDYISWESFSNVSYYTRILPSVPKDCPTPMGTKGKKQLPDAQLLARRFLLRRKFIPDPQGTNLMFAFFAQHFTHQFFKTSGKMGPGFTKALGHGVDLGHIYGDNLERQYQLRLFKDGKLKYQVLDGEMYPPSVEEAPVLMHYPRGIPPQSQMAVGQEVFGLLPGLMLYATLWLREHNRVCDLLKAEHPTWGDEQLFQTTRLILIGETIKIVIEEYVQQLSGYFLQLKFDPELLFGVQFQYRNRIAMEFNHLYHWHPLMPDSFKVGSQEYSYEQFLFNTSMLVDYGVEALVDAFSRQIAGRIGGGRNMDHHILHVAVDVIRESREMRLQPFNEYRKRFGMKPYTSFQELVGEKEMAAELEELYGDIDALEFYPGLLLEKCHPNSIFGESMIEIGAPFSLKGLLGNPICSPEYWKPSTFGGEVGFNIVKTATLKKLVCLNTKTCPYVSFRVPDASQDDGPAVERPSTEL

In the case of `O=C1N(Cc2ccccc2)c2ncccc2C1(Sc1ccccc1)Sc1ccccc1` [Compound 26, 1,3-dihydro-3,3-(diphenylthio)-1-(phenylmethyl)-2H-pyrrolo[2,3-b]pyridin-2-one], the % inhibition of HHT production in human platelets at 15 µM at cyclooxygenase (15 μM) came out at 11%. The molecule further yielded an inhibition at 15 µM against 5-lipoxygenase (15 μM) of 96%.
For `O=C1C(Sc2ccccc2)c2cccnc2N1c1ccccc1` (stereo not drawn) [Compound 11, 1,3-dihydro-1-phenyl-3-(phenylthio)-2H-pyrrolo[2,3-b]pyridin-2-one], on cyclooxygenase (15 μM), the % inhibition of HHT production in human platelets at 15 µM amounted to 23%. This molecule returned an inhibition at 15 µM against 5-lipoxygenase (15 μM) of 67%.
Take `CC(C)N1C(=O)C(Sc2ccccc2)c2cccnc21` (stereo not drawn) [Compound 14, 1,3-dihydro-1-(methylethyl)-3-(phenylthio)-2H-pyrrolo[2,3-b]pyridin-2-one]: the % inhibition of HHT production in human platelets at 50 µM at cyclooxygenase was found to be 17%. Further, the inhibition at 50 µM at 5-lipoxygenase (50 μM) is 63%.
Consider `O=C1C([S+]([O-])c2ccccc2)c2cccnc2N1c1cccc(C(F)(F)F)c1` (stereo not drawn) [Compound 13, 1,3-dihydro-3-(phenylsulfinyl)-1-(3-trifluoromethylphenyl)-2H-pyrrolo[2,3-b]pyridin-2-one], for which the % inhibition of HHT production in human platelets at 50 µM at cyclooxygenase was 44%. On 5-lipoxygenase (50 μM), this molecule yielded an inhibition at 50 µM of 82%.
Take `CC(=O)OCCSC1(C(C)=O)C(=O)N(c2ccccc2)c2ncccc21` (stereo not drawn) [Compound 28, 1,3-dihydro-3-[2-(acetoxy)-ethylthio)-3-(1-oxoethyl)-1-phenyl-2H-pyrrolo[2,3-b]pyridin-2-one]: on cyclooxygenase (15 μM), the “% inhibition of HHT production in human platelets” value turned out to be 29% and the % inhibition of HHT production in human platelets at 15 µM came to 35%. At 5-lipoxygenase (15 μM), the “PMN Assay % Inhibition 5-HETE” value is on record as 96% and 15 µM produced 80% inhibition.
With `O=C1C(Sc2ccccc2)c2cccnc2N1c1cccc(Cl)c1` (stereo not drawn) [Compound 33, 1,3-dihydro-1-(3-chlorophenyl)-3-(phenylthio)-2H-pyrrolo], the % inhibition of HHT production in human platelets at 15 µM at cyclooxygenase (15 μM) was 52%. Moreover, testing at 15 µM against 5-lipoxygenase (15 μM) gave an inhibition of 87%.
Take `O=C1C(Sc2ccccc2)c2cccnc2N1c1ccc(Cl)c(Cl)c1` (stereo not drawn) [Compound 34, 1,3-dihydro-1-(3,4-dichlorophenyl)-3-(phenylthio)[2,3-b]pyridin-2-one]: the % inhibition of HHT production in human platelets at 15 µM at cyclooxygenase (15 μM) was 54%. Further, testing at 15 µM at 5-lipoxygenase (15 μM) gave an inhibition of 99%.
`CN1C(=O)C(Sc2ccccc2)c2cccnc21` (stereo not drawn) [Compound 17, 1,3-dihydro-1-methyl-3-(phenylthio)-2H-pyrrolo[2,3-b]pyridin-2-one]: the % inhibition of HHT production in human platelets at 50 µM at cyclooxygenase came to 21%. This molecule registered an inhibition at 50 µM against 5-lipoxygenase (50 μM) of 63%.
Regarding `O=C1C(Sc2ccccc2Cl)c2cccnc2N1c1ccccc1` (stereo not drawn) [Compound 20, 1,3-dihydro-3-(2-chlorophenylthio)-1-phenyl-2H-pyrrolo[2,3-b]pyridin-2-one], the % inhibition of HHT production in human platelets at 50 µM on cyclooxygenase stood at 80%. Besides, the inhibition at 50 µM against 5-lipoxygenase (50 μM) worked out at 90%.
On to `COc1ccccc1SC1C(=O)N(c2ccccc2)c2ncccc21` (stereo not drawn) [Compound 22, 1,3-dihydro-3-(2-methoxyphenylthio)-1-phenyl-2H-pyrrolo[2,3-b]pyridin-2-one], for which the % inhibition of HHT production in human platelets at 50 µM at cyclooxygenase worked out at 31%. The molecule also came in with an inhibition at 50 µM on 5-lipoxygenase (50 μM) of 84%.
On to `O=C1C(Sc2ccc(Cl)cc2)c2cccnc2N1c1ccccc1` (stereo not drawn) [Compound 19, 1,3-dihydro-3-(4-chlorophenylthio)-1-phenyl-2H-pyrrolo[2,3-b]pyridin-2-one], for which the % inhibition of HHT production in human platelets at 50 µM at cyclooxygenase amounted to 71%. Moreover, 50 µM produced 91% inhibition at 5-lipoxygenase (50 μM).
With “1,3-dihydro-3-(2-methoxyphenylthio)-1-phenyl-2H-pyrrolo[2,3-b]pyridin-2-one [Compound 23]”, the “% inhibition of HHT production in human platelets” value on cyclooxygenase (15 μM) stood at 49%. In addition, the “PMN Assay % Inhibition 5-HETE” value came to 47% at 5-lipoxygenase (15 μM) and 81% at 5-lipoxygenase (50 μM).
With `Cc1c(Cl)cccc1N1C(=O)C(Sc2ccccc2)c2cccnc21` (stereo not drawn) [Compound 18, 1,3-dihydro-1-(3-chloro-2-methylphenyl)-3-(phenylthio)-2H-pyrrolo[2,3-b]pyridin-2-one], at cyclooxygenase, the % inhibition of HHT production in human platelets at 50 µM was found to be 64%. The molecule also came in with an inhibition at 50 µM against 5-lipoxygenase (50 μM) of 86%.
As for `COc1c(Sc2ccccc2)c2cccnc2n1-c1ccccc1` [Compound 35, 2-methoxy-1-phenyl-3-(phenylthio)-1H-pyrrolo[2,3-b]pyridine], the “% inhibition of HHT production in human platelets” value at cyclooxygenase (concentration not given) is 55%. The “inhibition of 5-HETE in the PMN assay” value against 5-lipoxygenase (concentration not given) worked out at 80%.
For `CC1(Sc2ccccc2)C(=O)N(c2ccccc2)c2ncccc21` (stereo not drawn) [Compound 16, 1,3-dihydro-3-methyl-1-phenyl-3-(phenylthio)-2H-pyrrolo[2,3-b]pyridin-2-one], at cyclooxygenase, the % inhibition of HHT production in human platelets at 50 µM turned out to be 2%. In addition, on 5-lipoxygenase (50 μM), the inhibition at 50 µM is 68%.
